Reference: patent publication EP0359821A1, “METHOD OF STERILIZING PLANT ANTHERS” (priority 1988, dated 1989)
Read-outs that look alike come from different tables or passages of the source.

Columns and labels:
[1] = tested on: Winterweizens Sorte Mironovskaya 808; experiment: Field trial of gametocidal activity (anther sterilisation), winter wheat; type: in vivo, Weizen; conditions: 2% aqueous emulsion, 20 kg/ha; for response vs control in vivo at 20000 g/ha: control = 100, read-out: Prozentsatz des Ansetzens bei freier Bestäubung
[2] = tested on: Sommerweizen Sorte Moskovskaya 35; experiment: Field trial of gametocidal activity, spring wheat; type: in vivo, Weizen; conditions: 1% aqueous emulsion; for Anzahl von Körnern der Ähre bei freier Bestäubung / Anzahl von Körnern der Ähre im Isolator / percent sterility at 10000 g/ha: V. period; for percent sterility at 10000 g/ha: read-out: Prozentsatz der Sterilität
[3] = tested on: Diploider Roggen Sorte Kharkovskaya 55; experiment: Field trial of gametocidal activity, diploid rye Kharkovskaya 55; conditions: 1% aqueous emulsion, 6 kg/ha; for Anzahl von Körnern der Ähre bei freier Bestäubung / Anzahl von Körnern der Ähre im Isolator / Prozentsatz der Sterilität: V. and VI. periods; for Prozentsatz des Ansetzens bei freier Bestäubung: control = 100
[4] = tested on: Diploider Roggen Sorte Chulpan; experiment: Field trial of gametocidal activity, diploid rye Chulpan; type: in vivo; conditions: single compounds, 1% aqueous emulsion, 10 kg/ha; for percent sterility at 10000 g/ha: read-out: Prozentsatz der Sterilität
Source text: Bei Weizen und Tritikale werden Einzelisolatoren verwendet.
Pflanzen von diploidem Roggen Sorte Chulpan werden in der V. oder VI.
Der Verbrauch an Sterilisationsmitteln beträgt 10 kg/ha.

in vivo = conditions: mouse
[5] = tested on: Hirse Sorte K-9693 Kormovoe 1; experiment: Field trial of gametocidal activity, millet K-9693 Kormovoe 1; conditions: 1% aqueous emulsion, 10 kg/ha; for Anzahl von Körnern der Rispe bei freier Bestäubung / Anzahl von Körnern der Rispe im Isolator / Prozentsatz der Sterilität: V. or VI. period; for Prozentsatz des Ansetzens bei freier Bestäubung: control = 100
[6] = tested on: Tetraploider Roggen Sorte Belta; experiment: Field trial of gametocidal activity, tetraploid rye Belta; type: in vivo; conditions: 1% aqueous emulsion, 10 kg/ha; for response vs control in vivo at 10000 g/ha: control = 100, read-out: Prozentsatz des Ansetzens bei freier Bestäubung
[7] = tested on: Hirse Sorte Mironovskoe 94; experiment: Field trial of gametocidal activity, millet Mironovskoe 94; type: in vivo; conditions: 1% aqueous emulsion, 10 kg/ha
[8] = tested on: Diploider Roggen Sorte Gibrid 340/65; experiment: Field trial of gametocidal activity, diploid rye Gibrid 340/65; conditions: Gibrid 340/65 (text: 312/65), 1% aqueous emulsion, 10 kg/ha; for Anzahl von Körnern der Ähre bei freier Bestäubung / Anzahl von Körnern der Ähre im Isolator / Prozentsatz der Sterilität: V. and VI. periods; for Prozentsatz des Ansetzens bei freier Bestäubung: control = 100
[9] = tested on: Sonnenblume Sorte Peredovik; experiment: Field trial of pollen sterilisation, sunflower Peredovik; type: in vivo; conditions: 0,2% aqueous emulsion, 1,2 kg/ke (so in the source)
Source text: Pflanzen der Sonnenblume Sorte Peredovik werden in der V. oder VI.
Der Verbrauch an Sterilisationsmittel beträgt 1,2 kg/ke.

Sonnenblume Linie VK 119 = experiment: Field trial of pollen sterilisation, sunflower line VK 119; conditions: 0,2% aqueous emulsion, 1,2 kg/ha
Roggen Sorte Voskhod 2 = experiment: Field trial of gametocidal activity, diploid rye Voskhod 2; type: in vivo; conditions: 1% aqueous emulsion, 8 kg/ha
[10] = V. or VI. period of organogenesis
[11] = V. or VI. period of organogenesis, read-out: Prozentsatz der Sterilität
[12] = control = 100, read-out: Prozentsatz des Ansetzens bei freier Bestäubung
[13] = read-out: Prozentsatz des Ansetzens bei freier Bestäubung, Chulpan, control = 100
[14] = V. or VI. period, read-out: Prozentsatz der Sterilität
[15] = Chulpan, V. or VI. period, listed as Beispiel 56
[16] = V. or VI. period, listed as Beispiel 7I

OCC(O)COc1ccc(Cl)cc1Cl (centres unmarked) [Beispiel 6, 3-(2',4'-Dichlorphenoxy)-propandiol-I,2]
Anzahl von Körnern der Ähre bei freier Bestäubung [1, 10]: 35,0
Anzahl von Körnern der Ähre im Isolator [1, 10]: 0,8
percent sterility at 20000 g/ha [1, 11]: 97.9%
response vs control in vivo at 20000 g/ha [1]: 86.4%
Anzahl von Körnern der Ähre bei freier Bestäubung ([2]; 10 kg/ha): 26,0
Anzahl von Körnern der Ähre im Isolator ([2]; 10 kg/ha): 0,1
percent sterility at 10000 g/ha ([2]; 10 kg/ha): 99.9%
response vs control in vivo at 10000 g/ha ([2]; 10 kg/ha, control = 100, read-out: Prozentsatz des Ansetzens bei freier Bestäubung): 94.5%
Anzahl von Körnern der Ähre bei freier Bestäubung [3]: 41,6
Anzahl von Körnern der Ähre im Isolator [3]: 0,0
Prozentsatz der Sterilität [3]: 100%
Prozentsatz des Ansetzens bei freier Bestäubung [3]: 90,2%

OCC(O)CSc1cccc(Cl)c1 (centres unmarked) [Beispiel 8, 3-(3'-Chlorphenylthio)-propandiol-1,2]
Anzahl von Körnern der Ähre bei freier Bestäubung [1, 10]: 32,7
Anzahl von Körnern der Ähre im Isolator [1, 10]: 2,6
response vs control in vivo at 20000 g/ha [1]: 80.7%
Anzahl von Körnern der Ähre bei freier Bestäubung ([2]; 10 kg/ha): 24,6
Anzahl von Körnern der Ähre im Isolator ([2]; 10 kg/ha): 0,8
percent sterility at 10000 g/ha ([2]; 10 kg/ha): 99.7%
response vs control in vivo [2, 12]: 89.5%
Anzahl von Körnern der Ähre bei freier Bestäubung ([4]; Chulpan, V. or VI. period): 52,1
Anzahl von Körnern der Ähre im Isolator ([4]; Chulpan, V. or VI. period): 0,0
percent sterility at 10000 g/ha ([4]; Chulpan, V. or VI. period): 100%
response vs control in vivo at 10000 g/ha [4, 13]: 91.9%
LD50 (in vivo; LD50, weisse Mäuse): 400 mg/kg
Anzahl von Körnern der Rispe bei freier Bestäubung [5]: 100,8
Anzahl von Körnern der Rispe im Isolator [5]: 0,0
Prozentsatz der Sterilität [5]: 100%
Prozentsatz des Ansetzens bei freier Bestäubung [5]: 68,7%

O=[N+]([O-])c1ccc(OCC(O)CO)cc1 (centres unmarked) [Beispiel 9, 3-(4'-Nitrophenoxy)-propandiol-I,2]
Anzahl von Körnern der Ähre bei freier Bestäubung [1, 10]: 34,0
Anzahl von Körnern der Ähre im Isolator [1, 10]: 4,8
percent sterility at 20000 g/ha [1, 11]: 85.2%
response vs control in vivo at 20000 g/ha [1]: 83.9%
Anzahl von Körnern der Ähre bei freier Bestäubung ([4]; Chulpan, V. or VI. period): 51,7
Anzahl von Körnern der Ähre im Isolator ([4]; Chulpan, V. or VI. period): 0,7
percent sterility at 10000 g/ha ([4]; Chulpan, V. or VI. period): 98.7%
response vs control in vivo at 10000 g/ha [4, 13]: 91.2%
Anzahl von Körnern der Ähre bei freier Bestäubung ([6]; V. or VI. period): 39,7
Anzahl von Körnern der Ähre im Isolator ([6]; V. or VI. period): 0,0
response vs control in vivo at 10000 g/ha [6]: 89.6%
Anzahl von Körnern der Rispe bei freier Bestäubung ([7]; V. or VI. period): 311,6
Anzahl von Körnern der Rispe im Isolator ([7]; V. or VI. period): 0,0
percent pollen sterility at 10000 g/ha [7, 14]: 100%
response vs control in vivo at 10000 g/ha [7, 12]: 82.1%
LD50 (in vivo; LD50, weisse Mäuse): 100 to 600 mg/kg
Anzahl von Körnern der Ähre bei freier Bestäubung [8]: 45,0
Anzahl von Körnern der Ähre im Isolator [8]: 0,0
Prozentsatz der Sterilität [8]: 100%
Prozentsatz des Ansetzens bei freier Bestäubung [8]: 84,1%

Nc1ccc(C(=O)O)cc1 [Beispiel 38, Äthanolaminsalz der p-Aminobenzoesäure]
LD50 (in vivo; LD50, weisse Mäuse): 2850 mg/kg
Anzahl von Körnern der Ähre bei freier Bestäubung [8]: 52,8
Anzahl von Körnern der Ähre im Isolator [8]: 3,2
Prozentsatz der Sterilität [8]: 93,4%
Prozentsatz des Ansetzens bei freier Bestäubung [8]: 97,8%

OCCCl [Beispiel 45, 2-Chloräthanol]
Anzahl von Körnern der Ähre bei freier Bestäubung ([4]; Chulpan, V. or VI. period): 80,2
Anzahl von Körnern der Ähre im Isolator ([4]; Chulpan, V. or VI. period): 2,2
pest or weed control at 10000 g/ha ([4]; read-out: Prozentsatz der Sterilität, Chulpan, V. or VI. period): 95.8%
response vs control in vivo at 10000 g/ha [4, 13]: 88.5%
Anzahl von Körnern der Ähre bei freier Bestäubung ([6]; V. or VI. period): 42,2
Anzahl von Körnern der Ähre im Isolator ([6]; V. or VI. period): 0,0
response vs control in vivo at 10000 g/ha [6]: 95.3%
Pollensterilität in % [9]: 100%
Ansetzen von Achänen bei freier Bestäubung in % ([9]; V. or VI. period): 83,9%
Ansetzen von Achänen im Isolator bei der Bestäubung mit dem Pollengemisch in % ([9]; V. or VI. period): 0,0%
LD50 (in vivo): 580 mg/kg
Ansetzen von Achänen bei freier Bestäubung in % (Sonnenblume Linie VK 119): 83,5%
Ansetzen von Achänen im Isolator bei der Bestäubung mit dem Pollengemisch in % (Sonnenblume Linie VK 119): 0,0%
Pollensterilität in % (Sonnenblume Linie VK 119): 100%
Anzahl von Körnern der Rispe bei freier Bestäubung [5]: 130,5
Anzahl von Körnern der Rispe im Isolator [5]: 0,0
Prozentsatz der Sterilität [5]: 100%
Prozentsatz des Ansetzens bei freier Bestäubung [5]: 89,0%

Nc1ccc(O)c(C(=O)O)c1 [Beispiel 51, Äthanolaminsalz der 5-Aminosalizylsäure]
Anzahl von Körnern der Ähre bei freier Bestäubung ([4]; Chulpan, V. or VI. period): 55,6
Anzahl von Körnern der Ähre im Isolator ([4]; Chulpan, V. or VI. period): 2,1
percent sterility at 10000 g/ha ([4]; Chulpan, V. or VI. period): 96%
response vs control in vivo at 10000 g/ha [4, 13]: 92.8%
Anzahl von Körnern der Ähre im Isolator ([6]; V. or VI. period): I,I
percent sterility at 10000 g/ha [6, 14]: 97.3%
response vs control in vivo at 10000 g/ha [6]: 99.5%
LD50 (in vivo; LD50, weisse Mäuse): 2400 mg/kg

CCC(CO)(CO)CBr [Beispiel 53, monobromsubstituiertem Etriol]
Anzahl von Körnern der Ähre bei freier Bestäubung ([4]; Chulpan, V. or VI. period): 55,8
Anzahl von Körnern der Ähre im Isolator ([4]; Chulpan, V. or VI. period): 4,8
percent sterility at 10000 g/ha ([4]; Chulpan, V. or VI. period): 91.8%
response vs control in vivo at 10000 g/ha ([4]; Chulpan, control = 100, read-out: Prozentsatz des Ansetzens bei freier Bestäubung): 98.4%

O=C(COc1cc(F)c(Cl)cc1Cl)OCCCl [Beispiel I0, β -Chloräthylester der 2,4-Dichlor-5-fluornhenoxyessig-säure]
Anzahl von Körnern der Ähre im Isolator [1, 10]: 0,6
response vs control in vivo at 20000 g/ha [1]: 74.3%
LD50 (in vivo; LD50, weisse Mäuse): 500 mg/kg

O=C(O)c1ccccc1F [Beispiel I4, Monoäthanolaminsalz der Orthofluorbenzoesäure]
Anzahl von Körnern der Ähre bei freier Bestäubung [1, 10]: 36,2
Anzahl von Körnern der Ähre im Isolator [1, 10]: 5,3
pest or weed control at 20000 g/ha [1, 11]: 85.9%
response vs control in vivo at 20000 g/ha [1]: 89.3%
Anzahl von Körnern der Ähre bei freier Bestäubung [4, 15]: 56,2
Anzahl von Körnern der Ähre im Isolator [4, 15]: 0,1
Prozentsatz des Ansetzens bei freier Bestäubung ([4]; Chulpan, control = 100, listed as Beispiel 56): 99,1%
Anzahl von Körnern der Ähre bei freier Bestäubung [6, 16]: 43,5
Anzahl von Körnern der Ähre im Isolator [6, 16]: 0,0
Prozentsatz des Ansetzens bei freier Bestäubung ([6]; control = 100, listed as Beispiel 7I): 98,2%
LD50 (in vivo; LD50, weisse Mäuse): 700 mg/kg

O=C(COc1ccc(F)cc1)OCCCl [Beispiel I, β-Chloräthylester der 4-Fluorphenoxyessigsäure]
Anzahl von Körnern der Ähre bei freier Bestäubung [1, 10]: 30,4
percent sterility at 20000 g/ha [1, 11]: 99.8%
Anzahl von Körnern der Ähre bei freier Bestäubung ([2]; 10 kg/ha): 23,8
Anzahl von Körnern der Ähre im Isolator ([2]; 10 kg/ha): 0,4
percent sterility at 10000 g/ha ([2]; 10 kg/ha): 98.5%
response vs control in vivo [2, 12]: 86.5%
LD50 (in vivo; LD50, weisse Mäuse): 400 mg/kg
Anzahl von Körnern der Ähre bei freier Bestäubung [8]: 45,6
Anzahl von Körnern der Ähre im Isolator [8]: 0,0
Prozentsatz der Sterilität [8]: 100%
Prozentsatz des Ansetzens bei freier Bestäubung [8]: 84,4%
Anzahl von Körnern der Ähre bei freier Bestäubung [3]: 42,7
Anzahl von Körnern der Ähre im Isolator [3]: 0,0
Prozentsatz der Sterilität [3]: 100%
Prozentsatz des Ansetzens bei freier Bestäubung [3]: 94,7%

Äthanolaminsalz der Tetraphthalsäure [Beispiel 34]
Anzahl von Körnern der Ähre bei freier Bestäubung (Roggen Sorte Voskhod 2; V. or VI. period): 54,0
Anzahl von Körnern der Ähre im Isolator (Roggen Sorte Voskhod 2; V. or VI. period): 1,2
Prozentsatz der Sterilität (Roggen Sorte Voskhod 2; V. or VI. period): 97,6%
Prozentsatz des Ansetzens bei freier Bestäubung (Roggen Sorte Voskhod 2; control = 100): 98,9%
